The supplement of paper PMC10307832

Experiments:
Experiment in all cases: relative viability (nuclei count vs DMSO), 5 days (fraction); higher = more cells survive
[1] = compound: O=C(O)C(Cc1ccccc1[N+](=O)[O-])=NNc1nc(-c2ccc(Cl)c(Cl)c2)cs1 (mixture of isomers) [4EGI-1] + C[C@]1(O)C[C@@H](c2nc(-c3ccc4ccc(-c5ccccc5)nc4c3)c3c(N)nccn32)C1 [Linsitinib] (partner 1 µM)
Procedure, shortened: (§1)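 Relative viability is defined as nuclei in treated wells over nuclei in vehicle wells. Duplicate plates were run and medians reported. Lung cancer cell lines in 1536-well plates were dosed by pin tool one day after seeding, with one drug or with a fixed anchor-drug dose plus five library-drug doses (not always all listed) in √10 steps, and nuclei were counted after 5 days.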

[2] = compound: CN1CCN(CC1)C2=CC(=C(C=C2)NC3=NC=C4C(=N3)N(C5=CC=CC=C5C(=O)N4C)C)OC [XMD8-85] + Cc1nc(NC(=O)N2CCC[C@H]2C(N)=O)sc1-c1ccnc(C(C)(C)C(F)(F)F)c1 [Alpelisib] (partner 2 µM)
Procedure, shortened: as §1

[3] = compound: CN1CCN(CC1)C2=CC(=C(C=C2)NC3=NC=C4C(=N3)N(C5=CC=CC=C5C(=O)N4C)C)OC [XMD8-85] + O=C(c1cc(Cc2n[nH]c(=O)c3ccccc23)ccc1F)N1CCN(C(=O)C2CC2)CC1 [Olaparib] (partner 8 µM)
Procedure, shortened: as §1

[4] = compound: O=C(O)C(Cc1ccccc1[N+](=O)[O-])=NNc1nc(-c2ccc(Cl)c(Cl)c2)cs1 (mixture of isomers) [4EGI-1] + CC(C)C[C@H](NC(=O)[C@H](Cc1ccccc1)NC(=O)c1cnccn1)B(O)O [Bortezomib] (partner 0.002 µM)
Procedure, shortened: as §1

Row | Cell Line | relative viability ([1]; first compound 0.5 µM) | relative viability ([1]; first compound 1.581 µM) | relative viability ([1]; first compound 5 µM) | relative viability ([1]; first compound 15.81 µM) | relative viability ([1]; first compound 50 µM) | relative viability ([2]; first compound 0.08 µM) | relative viability ([2]; first compound 0.253 µM) | relative viability ([2]; first compound 0.8 µM) | relative viability ([2]; first compound 2.53 µM) | relative viability ([3]; first compound 0.08 µM) | relative viability ([3]; first compound 0.253 µM) | relative viability ([3]; first compound 0.8 µM) | relative viability ([3]; first compound 2.53 µM) | relative viability ([3]; first compound 8 µM) | relative viability ([4]; first compound 0.5 µM) | relative viability ([4]; first compound 1.581 µM) | relative viability ([4]; first compound 5 µM) | relative viability ([4]; first compound 15.81 µM) | relative viability ([4]; first compound 50 µM) | relative viability ([2]; first compound 8 µM)
1 | LC-2-ad | 0.897 | 0.764 | 0.83 | 0.432 | 0.13 | 0.893 | 0.832 | 0.888 | 0.735 | 0.771 | 0.687 | 0.701 | 0.581 | 0.415 | 1.17 | 0.877 | 0.944 | 0.444 | 0.352 | –
2 | LCLC-97TM1 | 0.161 | – | 0.203 | 0.198 | 0.165 | 0.294 | 0.238 | 0.293 | 0.263 | 0.433 | 0.285 | 0.359 | 0.477 | 0.201 | 0.589 | – | 0.942 | 0.271 | 0.277 | 0.36
3 | SW 900 | – | – | – | – | – | – | – | – | – | 0.824 | 0.705 | 1.15 | 0.786 | 0.376 | – | – | – | – | – | –
4 | NCI-H460 | 0.777 | – | 1.07 | 0.182 | 0.0218 | 0.447 | 0.442 | 0.688 | 0.401 | 0.284 | 0.448 | 0.435 | 0.35 | 0.213 | 1.15 | – | 1.08 | 0.913 | 0.0451 | 0.147
5 | UMC-11 | 1.06 | 1.18 | 1.02 | 0.987 | 0.399 | 0.954 | 0.931 | 1 | 0.939 | 0.475 | 0.358 | 0.389 | 0.325 | 0.231 | 1.04 | 0.872 | 0.669 | 0.679 | 0.255 | 0.387
6 | HCC-827 | 0.969 | 0.866 | 0.905 | – | 0.878 | 0.946 | 1.06 | 0.939 | 1.08 | 0.67 | 0.714 | 0.684 | 0.739 | 0.701 | 0.991 | 0.853 | 1.02 | 0.267 | 0.519 | 0.996
7 | 201T | 1.04 | 0.922 | 1.03 | 0.913 | 0.899 | 0.966 | 1.05 | 1 | 1.08 | 0.889 | 0.811 | 0.886 | 0.866 | 0.73 | 1.15 | 1.05 | 1.08 | 1.09 | 1.03 | 0.901
8 | NCI-H1755 | 0.966 | 0.99 | 0.958 | 0.932 | 0.572 | 0.981 | 0.949 | 0.954 | 1.04 | 0.974 | 0.906 | 0.862 | 0.85 | 0.899 | 1.06 | 0.94 | 0.918 | 0.802 | 0.441 | 0.896
9 | NCI-H1944 | 1.39 | – | 1.21 | 1.1 | 1.13 | 0.815 | 0.791 | 0.847 | 0.977 | 0.39 | 0.393 | 0.44 | 0.402 | 0.338 | – | – | – | – | – | 0.746
10 | NCI-H1563 | 1.31 | 0.979 | 1.29 | 1.22 | 0.883 | 1.04 | 0.967 | 0.882 | 0.814 | – | – | – | – | – | 0.895 | 0.728 | 0.847 | 0.818 | 0.468 | 0.709
11 | NCI-H1666 | 0.804 | 0.771 | 0.778 | 0.583 | 0.291 | 1.01 | 0.829 | 0.9 | 1.05 | 0.697 | 0.716 | 0.742 | 0.773 | – | 1.22 | 0.693 | 0.862 | 0.474 | 0.228 | 0.74
12 | LCLC-103H | 1.09 | 0.994 | 0.955 | 1.03 | 0.887 | 0.88 | 1.04 | 0.933 | 0.961 | 0.84 | 0.759 | 0.768 | 0.793 | 0.665 | 1.03 | 0.964 | 0.98 | 0.955 | 0.959 | 0.728
13 | NCI-H1734 | 0.948 | 0.866 | 0.991 | 1 | 0.529 | 0.652 | 0.678 | 0.745 | 0.658 | 0.672 | 0.616 | 0.629 | – | 0.508 | 0.948 | 0.773 | 0.922 | 0.712 | 0.292 | 0.576
14 | HOP-62 | 1.19 | – | 1.16 | 1.03 | 0.707 | 0.85 | 0.967 | 1.04 | 0.908 | 0.136 | 0.55 | 0.384 | 0.287 | 0.231 | 1.32 | – | 1.03 | 1.06 | 0.45 | –
15 | HCC-15 | 0.884 | 0.836 | 0.865 | 0.728 | 0.432 | 0.934 | 0.851 | 0.997 | 0.894 | 0.745 | 0.67 | 0.7 | 0.699 | 0.64 | 1.09 | 1.12 | 1.06 | 0.951 | 0.801 | 0.661
16 | NCI-H2405 | 1.14 | 0.889 | 1.02 | 1.02 | 0.536 | 0.812 | 0.818 | 0.833 | 0.539 | 0.908 | 0.919 | 0.949 | 0.859 | 0.817 | 0.972 | 0.858 | 0.949 | 0.992 | 0.79 | 0.568
17 | NCI-H1793 | 1 | 0.996 | 0.819 | 0.645 | 0.747 | 0.914 | 0.769 | 0.666 | 0.851 | – | 0.574 | 0.71 | 1.02 | 0.66 | – | – | – | – | – | 0.668
18 | NCI-H1703 | 1.4 | 0.632 | 1.06 | 1.27 | 0.994 | 0.305 | 0.433 | 0.337 | 0.401 | 0.308 | – | 0.427 | 0.42 | 0.312 | 0.403 | 0.363 | 0.446 | 0.365 | 0.201 | 0.265
